These results are taken from ChEMBL document CHEMBL5715954, “Silencing c-Myc translation as a therapeutic strategy through targeting PI3Kδ and CK1ε in hematological malignancies” (Blood, 2017).

What all share (set-up): scale not given: the % may be the effect or the level left
For experiment [1], the target named is T1, Protein kinase C epsilon type (Homo sapiens) (UniProt Q02156).
T1 sequence (whole entry): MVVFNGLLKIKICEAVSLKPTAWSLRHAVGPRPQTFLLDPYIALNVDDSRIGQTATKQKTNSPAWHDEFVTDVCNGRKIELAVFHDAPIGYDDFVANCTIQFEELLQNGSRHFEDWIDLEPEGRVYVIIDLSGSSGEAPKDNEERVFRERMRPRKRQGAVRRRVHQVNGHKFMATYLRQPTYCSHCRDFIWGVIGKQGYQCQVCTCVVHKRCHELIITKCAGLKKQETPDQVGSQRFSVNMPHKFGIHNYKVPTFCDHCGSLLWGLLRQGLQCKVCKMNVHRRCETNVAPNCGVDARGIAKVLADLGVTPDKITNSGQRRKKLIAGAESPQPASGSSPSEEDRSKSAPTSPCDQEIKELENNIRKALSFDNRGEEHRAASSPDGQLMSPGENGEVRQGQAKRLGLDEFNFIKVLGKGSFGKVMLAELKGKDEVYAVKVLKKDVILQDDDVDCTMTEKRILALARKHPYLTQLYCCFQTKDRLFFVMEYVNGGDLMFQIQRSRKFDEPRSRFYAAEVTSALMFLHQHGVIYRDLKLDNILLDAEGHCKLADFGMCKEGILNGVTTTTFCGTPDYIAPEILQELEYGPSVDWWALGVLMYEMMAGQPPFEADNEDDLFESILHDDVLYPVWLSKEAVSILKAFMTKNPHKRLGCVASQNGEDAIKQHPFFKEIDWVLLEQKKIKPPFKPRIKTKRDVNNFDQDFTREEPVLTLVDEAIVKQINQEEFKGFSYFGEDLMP
Briefly: Inhibition of human PKCepsilon assessed as enzyme activity at 1 uM using ERMRPRKRQGSVRRRV as substrate preincubated for 20 mins followed by [gamma-33P]-ATP addition and measured after 120 mins by radiometric Hot-SpotSM Kinase assay relative to control.

Experiment [2] addresses T2, Ephrin type-A receptor 1 (Homo sapiens) (UniProt P21709).
T2 sequence (whole entry): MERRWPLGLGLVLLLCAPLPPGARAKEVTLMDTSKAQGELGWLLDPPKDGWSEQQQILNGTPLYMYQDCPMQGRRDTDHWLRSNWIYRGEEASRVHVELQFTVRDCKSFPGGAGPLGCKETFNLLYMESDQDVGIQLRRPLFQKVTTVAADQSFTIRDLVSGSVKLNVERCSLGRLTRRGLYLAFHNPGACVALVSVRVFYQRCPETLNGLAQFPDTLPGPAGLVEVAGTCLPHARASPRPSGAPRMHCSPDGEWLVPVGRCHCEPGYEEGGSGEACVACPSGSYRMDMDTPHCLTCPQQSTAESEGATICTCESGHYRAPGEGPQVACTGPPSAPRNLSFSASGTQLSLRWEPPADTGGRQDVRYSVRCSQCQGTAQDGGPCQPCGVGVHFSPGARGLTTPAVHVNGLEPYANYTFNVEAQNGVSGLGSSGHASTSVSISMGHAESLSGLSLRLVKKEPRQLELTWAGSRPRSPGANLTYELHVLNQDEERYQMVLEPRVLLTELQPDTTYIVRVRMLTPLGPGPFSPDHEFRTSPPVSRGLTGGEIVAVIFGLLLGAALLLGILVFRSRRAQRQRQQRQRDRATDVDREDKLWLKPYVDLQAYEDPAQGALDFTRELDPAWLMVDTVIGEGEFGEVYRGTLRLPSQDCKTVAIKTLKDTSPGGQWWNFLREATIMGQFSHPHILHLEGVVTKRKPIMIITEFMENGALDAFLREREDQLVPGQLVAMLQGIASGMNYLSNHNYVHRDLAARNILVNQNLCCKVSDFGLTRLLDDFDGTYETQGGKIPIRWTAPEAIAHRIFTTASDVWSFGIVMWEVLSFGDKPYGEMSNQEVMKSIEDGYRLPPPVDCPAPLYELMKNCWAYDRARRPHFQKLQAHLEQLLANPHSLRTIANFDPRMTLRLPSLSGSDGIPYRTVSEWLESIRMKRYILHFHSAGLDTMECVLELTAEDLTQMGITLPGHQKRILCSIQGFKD
The experiment in a line: Inhibition of human EPHA1 assessed as enzyme activity at 1 uM using poly[Glu:Tyr] (4:1) as substrate preincubated for 20 mins followed by [gamma-33P]-ATP addition and measured after 120 mins by radiometric Hot-SpotSM Kinase assay relative to control.

The target of experiment [3] is Proto-oncogene tyrosine-protein kinase ROS (Homo sapiens) (UniProt P08922). Briefly: Inhibition of human ROS assessed as enzyme activity at 1 uM using KKKSPGEYVNIEFG as substrate preincubated for 20 mins followed by [gamma-33P]-ATP addition and measured after 120 mins by radiometric Hot-SpotSM Kinase assay relative to control.
Experiment [4] addresses Serine/threonine-protein kinase WNK2 (Homo sapiens) (UniProt Q9Y3S1). The experiment in a line: Inhibition of human WNK2 assessed as enzyme activity at 1 uM using myelin basic protein as substrate preincubated for 20 mins followed by [gamma-33P]-ATP addition and measured after 120 mins by radiometric Hot-SpotSM Kinase assay relative to control.
Experiment [5] addresses T3, Aurora kinase C (Homo sapiens) (UniProt Q9UQB9).
T3 sequence (whole entry): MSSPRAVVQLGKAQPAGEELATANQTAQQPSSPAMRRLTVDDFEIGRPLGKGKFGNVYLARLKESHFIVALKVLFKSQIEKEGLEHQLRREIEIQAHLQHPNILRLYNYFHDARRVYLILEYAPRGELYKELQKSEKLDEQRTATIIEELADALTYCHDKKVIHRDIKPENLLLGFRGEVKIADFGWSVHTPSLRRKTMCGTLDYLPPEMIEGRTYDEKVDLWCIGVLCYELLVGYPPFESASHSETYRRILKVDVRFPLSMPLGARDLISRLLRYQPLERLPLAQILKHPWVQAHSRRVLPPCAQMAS
The experiment in a line: Inhibition of human Aurora C assessed as enzyme activity at 1 uM using H-LRRASLG as substrate preincubated for 20 mins followed by [gamma-33P]-ATP addition and measured after 120 mins by radiometric Hot-SpotSM Kinase assay relative to control.

Sequence of Proto-oncogene tyrosine-protein kinase ROS (Homo sapiens) (P08922 whole entry): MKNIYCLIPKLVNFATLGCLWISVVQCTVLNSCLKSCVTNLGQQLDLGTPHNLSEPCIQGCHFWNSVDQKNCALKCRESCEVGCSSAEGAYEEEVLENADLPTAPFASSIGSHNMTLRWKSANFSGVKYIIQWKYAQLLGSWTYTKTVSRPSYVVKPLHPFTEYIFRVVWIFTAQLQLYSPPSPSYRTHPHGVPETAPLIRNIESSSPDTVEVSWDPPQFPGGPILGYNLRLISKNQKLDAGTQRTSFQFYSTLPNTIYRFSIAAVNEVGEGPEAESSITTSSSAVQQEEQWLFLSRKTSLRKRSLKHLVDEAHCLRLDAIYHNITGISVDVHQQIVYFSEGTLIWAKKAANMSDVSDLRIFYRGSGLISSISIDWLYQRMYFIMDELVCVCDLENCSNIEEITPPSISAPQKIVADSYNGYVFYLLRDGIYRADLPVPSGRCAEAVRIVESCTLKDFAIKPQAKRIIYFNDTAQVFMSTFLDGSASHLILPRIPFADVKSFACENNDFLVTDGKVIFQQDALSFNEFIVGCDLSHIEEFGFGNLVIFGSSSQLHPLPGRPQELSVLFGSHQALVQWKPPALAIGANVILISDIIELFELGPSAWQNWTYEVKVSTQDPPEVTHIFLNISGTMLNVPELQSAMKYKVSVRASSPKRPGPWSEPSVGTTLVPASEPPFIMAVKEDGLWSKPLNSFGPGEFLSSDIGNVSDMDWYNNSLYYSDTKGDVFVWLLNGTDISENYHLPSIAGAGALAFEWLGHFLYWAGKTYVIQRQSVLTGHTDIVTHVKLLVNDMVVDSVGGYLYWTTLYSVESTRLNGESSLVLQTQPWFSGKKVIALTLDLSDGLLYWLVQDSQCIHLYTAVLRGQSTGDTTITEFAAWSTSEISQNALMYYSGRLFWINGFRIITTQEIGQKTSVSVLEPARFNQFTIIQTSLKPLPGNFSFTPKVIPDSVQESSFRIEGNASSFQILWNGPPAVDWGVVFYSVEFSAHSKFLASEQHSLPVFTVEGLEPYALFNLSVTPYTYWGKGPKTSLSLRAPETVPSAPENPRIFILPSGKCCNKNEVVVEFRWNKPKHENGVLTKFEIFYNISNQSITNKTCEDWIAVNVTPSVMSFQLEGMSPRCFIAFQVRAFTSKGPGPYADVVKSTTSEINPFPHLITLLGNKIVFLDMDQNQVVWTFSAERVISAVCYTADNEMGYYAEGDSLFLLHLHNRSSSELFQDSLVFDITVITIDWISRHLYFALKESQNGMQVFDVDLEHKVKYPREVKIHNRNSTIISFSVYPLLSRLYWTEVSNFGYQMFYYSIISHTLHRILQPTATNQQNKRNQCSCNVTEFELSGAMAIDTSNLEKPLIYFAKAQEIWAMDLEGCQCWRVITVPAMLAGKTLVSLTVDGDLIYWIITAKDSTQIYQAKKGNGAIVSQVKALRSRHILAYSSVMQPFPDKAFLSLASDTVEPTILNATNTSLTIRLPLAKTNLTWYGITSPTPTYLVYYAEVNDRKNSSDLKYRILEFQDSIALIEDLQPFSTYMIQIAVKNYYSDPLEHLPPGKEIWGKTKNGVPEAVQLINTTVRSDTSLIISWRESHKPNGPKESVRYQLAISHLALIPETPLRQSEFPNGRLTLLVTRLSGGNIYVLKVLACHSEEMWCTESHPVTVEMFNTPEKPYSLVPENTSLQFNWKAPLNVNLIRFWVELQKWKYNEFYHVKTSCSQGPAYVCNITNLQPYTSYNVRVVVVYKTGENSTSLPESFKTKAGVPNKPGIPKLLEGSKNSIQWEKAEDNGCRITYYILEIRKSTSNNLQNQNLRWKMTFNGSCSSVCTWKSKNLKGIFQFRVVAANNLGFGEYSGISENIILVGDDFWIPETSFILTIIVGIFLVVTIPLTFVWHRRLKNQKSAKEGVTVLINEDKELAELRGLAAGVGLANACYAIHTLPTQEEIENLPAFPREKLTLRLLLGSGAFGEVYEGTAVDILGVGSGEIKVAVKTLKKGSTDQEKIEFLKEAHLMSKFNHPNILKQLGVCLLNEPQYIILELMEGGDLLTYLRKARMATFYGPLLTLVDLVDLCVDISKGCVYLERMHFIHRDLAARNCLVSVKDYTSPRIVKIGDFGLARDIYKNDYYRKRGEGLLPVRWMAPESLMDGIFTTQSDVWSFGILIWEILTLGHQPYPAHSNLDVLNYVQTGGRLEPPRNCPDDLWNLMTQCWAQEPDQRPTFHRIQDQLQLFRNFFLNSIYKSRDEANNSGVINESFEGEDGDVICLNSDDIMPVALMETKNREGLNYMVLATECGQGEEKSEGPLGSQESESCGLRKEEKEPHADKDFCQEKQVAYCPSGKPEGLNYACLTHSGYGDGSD
Sequence of Serine/threonine-protein kinase WNK2 (Homo sapiens) (Q9Y3S1 whole entry): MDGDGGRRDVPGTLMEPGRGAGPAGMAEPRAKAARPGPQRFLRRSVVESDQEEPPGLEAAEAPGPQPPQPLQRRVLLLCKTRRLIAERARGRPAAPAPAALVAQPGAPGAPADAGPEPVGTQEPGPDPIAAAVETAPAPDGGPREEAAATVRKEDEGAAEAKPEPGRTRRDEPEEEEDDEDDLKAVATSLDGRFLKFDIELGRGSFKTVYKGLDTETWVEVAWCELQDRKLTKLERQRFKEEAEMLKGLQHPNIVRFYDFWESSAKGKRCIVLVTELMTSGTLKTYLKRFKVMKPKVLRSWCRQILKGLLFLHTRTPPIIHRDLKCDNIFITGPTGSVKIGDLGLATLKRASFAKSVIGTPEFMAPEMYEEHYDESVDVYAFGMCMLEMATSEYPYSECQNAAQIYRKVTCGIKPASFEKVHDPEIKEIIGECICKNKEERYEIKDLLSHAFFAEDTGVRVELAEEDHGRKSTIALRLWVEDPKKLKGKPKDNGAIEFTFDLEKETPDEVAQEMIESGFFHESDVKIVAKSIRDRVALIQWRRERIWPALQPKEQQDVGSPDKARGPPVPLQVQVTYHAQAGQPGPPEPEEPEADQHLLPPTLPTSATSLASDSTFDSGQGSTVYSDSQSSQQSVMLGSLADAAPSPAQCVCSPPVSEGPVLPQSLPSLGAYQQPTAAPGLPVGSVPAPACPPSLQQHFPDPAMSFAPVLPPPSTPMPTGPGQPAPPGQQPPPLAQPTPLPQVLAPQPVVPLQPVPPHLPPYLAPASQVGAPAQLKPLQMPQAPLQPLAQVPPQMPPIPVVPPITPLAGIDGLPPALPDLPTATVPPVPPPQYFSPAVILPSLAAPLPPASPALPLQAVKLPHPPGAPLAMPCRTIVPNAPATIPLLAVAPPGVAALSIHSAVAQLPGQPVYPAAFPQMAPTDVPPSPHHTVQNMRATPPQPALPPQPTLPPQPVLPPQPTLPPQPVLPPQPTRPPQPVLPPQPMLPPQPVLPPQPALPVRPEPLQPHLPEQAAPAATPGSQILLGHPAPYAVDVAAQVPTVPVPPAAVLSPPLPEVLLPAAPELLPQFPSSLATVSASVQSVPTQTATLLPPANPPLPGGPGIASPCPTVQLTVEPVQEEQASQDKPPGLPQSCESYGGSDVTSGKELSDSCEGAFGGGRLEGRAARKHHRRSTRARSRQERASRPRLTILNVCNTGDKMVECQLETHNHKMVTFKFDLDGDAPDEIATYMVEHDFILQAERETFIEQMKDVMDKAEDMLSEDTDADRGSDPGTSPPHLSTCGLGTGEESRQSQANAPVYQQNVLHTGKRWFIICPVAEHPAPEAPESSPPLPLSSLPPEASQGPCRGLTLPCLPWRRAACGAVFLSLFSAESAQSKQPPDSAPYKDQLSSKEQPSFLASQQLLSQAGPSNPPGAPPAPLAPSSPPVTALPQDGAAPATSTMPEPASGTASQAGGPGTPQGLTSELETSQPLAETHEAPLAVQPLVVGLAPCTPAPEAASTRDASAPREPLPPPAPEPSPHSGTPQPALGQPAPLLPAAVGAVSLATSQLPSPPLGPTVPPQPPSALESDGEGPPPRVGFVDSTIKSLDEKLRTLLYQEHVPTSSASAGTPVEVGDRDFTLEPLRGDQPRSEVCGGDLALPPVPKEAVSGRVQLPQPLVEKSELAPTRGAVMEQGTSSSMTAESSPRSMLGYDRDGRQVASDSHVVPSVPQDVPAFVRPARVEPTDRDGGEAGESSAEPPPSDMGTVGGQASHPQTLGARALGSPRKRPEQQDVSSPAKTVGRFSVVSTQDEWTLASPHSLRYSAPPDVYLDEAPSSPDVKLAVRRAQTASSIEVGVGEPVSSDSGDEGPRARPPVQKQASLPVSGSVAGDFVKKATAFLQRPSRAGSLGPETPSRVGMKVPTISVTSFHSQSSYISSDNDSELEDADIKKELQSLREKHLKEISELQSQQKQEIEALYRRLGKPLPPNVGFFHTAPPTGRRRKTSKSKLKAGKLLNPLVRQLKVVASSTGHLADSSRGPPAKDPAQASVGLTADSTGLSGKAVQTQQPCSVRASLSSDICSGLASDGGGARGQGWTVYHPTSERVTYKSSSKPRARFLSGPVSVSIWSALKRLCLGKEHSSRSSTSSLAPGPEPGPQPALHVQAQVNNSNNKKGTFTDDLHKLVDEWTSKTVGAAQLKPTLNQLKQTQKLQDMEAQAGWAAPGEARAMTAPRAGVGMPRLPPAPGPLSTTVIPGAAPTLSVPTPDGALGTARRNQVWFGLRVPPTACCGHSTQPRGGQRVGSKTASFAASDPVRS

In the case of `C[C@H](Nc1ncnc2nc[nH]c12)c1cc2cccc(Cl)c2c(=O)n1-c1ccccc1`, the Activity in experiment [1] came to 107%; in experiment [2], 95.2%; in experiment [3], 86.7%; in experiment [4] it was 90.5%; in experiment [5], 89.4%.
Taken in the same sequence, the figures for `CC[C@H](Nc1ncnc2[nH]cnc12)c1nc2cccc(F)c2c(=O)n1-c1ccccc1` were 108%, 91.4%, 98%, 92.3% and 90.8%.
Taken in the same sequence, the figures for `CC(C)Oc1ccc(-c2nn([C@@H](C)c3oc4ccc(F)cc4c(=O)c3-c3cccc(F)c3)c3ncnc(N)c23)cc1F` [UMBRALISIB] were 109%, 96.4%, 94.5%, 82.2% and 94.2%.
